Legend:
[1] = molecular target: T1, CX3CR1 (Homo sapiens, UniProt P49238); assay: [125I]-fractalkine competition receptor binding assay on hCX3CR1 membranes; details: 25° C. for 24 h
T1 construct: expressed in transfected cells; host or cells: human embryonic kidney suspension (HEKS) 293 cell line stably expressing chimeric G-protein Gαqi5; membranes
T1 sequence (P49238 1-355): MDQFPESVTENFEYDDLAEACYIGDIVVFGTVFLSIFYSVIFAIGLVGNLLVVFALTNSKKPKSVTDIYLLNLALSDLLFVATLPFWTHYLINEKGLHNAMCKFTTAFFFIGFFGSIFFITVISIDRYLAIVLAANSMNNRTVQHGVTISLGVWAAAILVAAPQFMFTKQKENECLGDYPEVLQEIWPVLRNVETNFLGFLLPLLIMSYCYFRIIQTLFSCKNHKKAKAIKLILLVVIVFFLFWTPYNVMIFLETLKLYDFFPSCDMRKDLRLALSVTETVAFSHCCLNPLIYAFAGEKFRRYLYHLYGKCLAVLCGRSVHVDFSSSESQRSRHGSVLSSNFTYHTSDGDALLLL

[2] = molecular target: T2, CXCR2 (Homo sapiens, UniProt P25025); assay: [125I]-hIL-8 competition binding (SPA) on membranes of cells expressing human CXCR2; details: receptor binding, [125I]-hIL-8, RT for 4 h
T2 construct: cultured under geneticin/G418 selection; membranes
T2 sequence (P25025 1-360): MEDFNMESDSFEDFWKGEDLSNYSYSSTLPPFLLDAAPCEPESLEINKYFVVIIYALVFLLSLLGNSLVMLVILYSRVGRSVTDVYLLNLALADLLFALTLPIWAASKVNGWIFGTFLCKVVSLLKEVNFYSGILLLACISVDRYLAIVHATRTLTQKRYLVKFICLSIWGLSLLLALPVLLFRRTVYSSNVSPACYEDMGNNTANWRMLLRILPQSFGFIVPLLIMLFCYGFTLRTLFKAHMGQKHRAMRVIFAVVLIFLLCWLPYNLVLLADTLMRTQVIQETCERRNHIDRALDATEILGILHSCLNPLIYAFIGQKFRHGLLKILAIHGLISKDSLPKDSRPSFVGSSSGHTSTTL
Procedure: Recombinant human fractalkine (hCX3CL1) and recombinant human interleukin-8 (IL-8 or hCXCL8) were purchased from PeproTech Inc., UK. Recombinant [^125I]-fractalkine (human) and [^125I] hIL-8 with the specific activity of 2200 Ci/mmol, was purchased from NEN® Life Science Products, Inc., UK. Fluo4-AM was purchased from Molecular Probes, US. All other chemicals were of analytical grade.
Cells expressing human CXCR2 obtained from AstraZeneca Charnwood are cultured in EMEM containing Glutamax and supplemented with 10% FBS (from PAA, Austria), 1% non-essential amino acids (NEAA), 100 U/mL penicillin and 100 μg/mL streptomycin (PEST) and 500 μg/mL geneticin/G418.
Cells are grown at 37° C. and 5% CO2 and harvested at 60-80% confluence in buffer containing 10 mM Tris-HCl pH 7.4, 5 mM EDTA, 0.1 mg/mL bacitracin. The cells are centrifuged at 300×g for 10 min and the pellet is resuspended in harvesting buffer (10 mM Tris-HCl, pH 7.4, 5 mM ethylenediaminetetra-aceticacid (EDTA) and 0.1 mg/mL bacitracin), pooled and homogenised using a Dounce homogeniser. The homogenate is centrifuged in 48000×g for 10 min and resuspended in harvesting buffer using Ultra-Turrax T8. Membrane aliquots are stored at −80° C. Protein concentration was determined in microtiter plates as described by Harrington (1990, Anal. Biochem. 186, 285-287).
The [^125I]-hIL-8 competition binding studies are performed in singlicates in white clear bottom 96-well isoplates with a final volume of 200 μL and each well contains 150 pM [^125I]-hIL-8 (specific activity 2200 Ci/mmol), membrane-SPA preparation equivalent to 20 pM receptors and 1.5 mg SPA-beads in assay buffer [50 mM HEPES-KOH pH 7.4, 10 mM MgCl2, 1 mM EDTA, 0.5% (w/v) gelatin]. The test compounds were treated as above. The non-specific binding is determined in the presence of 500 nM unlabelled hIL-8. The agonist hIL-8 (a concentration-response curve from 3 pM to 30 nM), is used as reference compound at each test occasion. […] The binding reaction is started by addition of 140 μL membrane-SPA preparation, and the samples are incubated in dark at RT for 4 h. Assay plates are counted in a liquid scintillation counter (Wallac MicroBeta® TriLux 1450 from PerkinElmer, USA).

Ki [1] [µM]	Ki [2] [µM]	Compound
0.0031	2.77	CCC(Sc1nc(N[C@@H](CO)CC(C)C)c2sc(N)nc2n1)c1ccccc1 (stereo partly drawn)
0.0059	5.65	CC(C)C[C@H](CO)Nc1nc(SC(C)c2ccccc2Cl)nc2nc(N)sc12 (stereo partly drawn)
0.014	4.21	CC(C)C[C@H](CO)Nc1nc(S[C@@H](C)c2cccc(C#N)c2)nc2nc(N)sc12
0.052	1.14	CCC[C@H](CO)Nc1nc(S[C@@H](C)c2ccccc2)nc2nc(N)sc12
0.048	0.531	CC(C)C[C@H](CO)Nc1nc(SCc2ccccc2)nc2nc(N)sc12 [reference compound]
0.051	1.81	CC(C)C[C@H](CO)Nc1nc(SCc2ccccc2Cl)nc2nc(N)sc12 [reference compound]
0.156	1.98	CC(C)C[C@H](CO)Nc1nc(SCc2cccc(C#N)c2)nc2nc(N)sc12 [reference compound]
0.592	0.54	CCC[C@H](CO)Nc1nc(SCc2ccccc2)nc2nc(N)sc12 [reference compound]

Compound	Ki [1] [µM]	Ki [2] [µM]
CC(C)C[C@H](CO)Nc1nc(SC(C)c2ccccc2)nc2nc(N)sc12 (stereo partly drawn)	0.0038	3.43

From patent US9440992B2, “5,7-disubstituted thiazolo[4,5-D]pyrimidines as chemokine inhibitors” (Acturum Life Science AB, priority 2005, dated 2016)
